Laboratory results from the supplement of paper PMC10627819.

Tests used:
[1] = tested on: B. subtilis 168; assay: fitness (endpoint OD595 vs no drug) (fraction); higher = more growth
Summary of the method: (§1)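 Bacterial growth was followed in 384-well plates seeded at OD595 0.01, with 30 µl per well, or 55 µl for S. pneumoniae, in TSB, LB Lennox or CY at 37 °C. OD595 was read every 30 min for 14 h, and each reading had the first reading subtracted as background. Fitness is the background-corrected optical density at entry into stationary phase divided by the robust mean of the no-drug control wells. This ratio is capped at 1.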

[2] = tested on: S. aureus Newman; assay: as above
Summary of the method: as §1

[3] = tested on: S. pneumoniae D39V; assay: as above
Summary of the method: as §1

[4] = tested on: B. subtilis 168; assay: Bliss interaction score (quartile over a dose matrix) (fitness difference); higher = more antagonism (negative = synergy)
Summary of the method: (§2)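 Fitness was derived from optical density at entry into stationary phase, divided by the robust mean of the no-drug wells on the same plate. That reading was taken as OD595, and the ratio was capped at 1. Single-drug fitness was inferred from the combination data. The Bliss score, observed fitness minus the expected product of single-drug fitness, was summarised as quartiles over technical, biological and donor/recipient replicates.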

[5] = tested on: S. aureus DSM 20231; assay: as above
Summary of the method: as §2

[6] = tested on: S. aureus Newman; assay: as above
Summary of the method: as §2

[7] = tested on: S. pneumoniae D39V; assay: as above
Summary of the method: as §2

[8] = tested on: S. aureus DSM 20231; assay: fitness (endpoint OD595 vs no drug) (fraction); higher = more growth
Summary of the method: as §1
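Wherever Bliss interaction score (quartile over a dose matrix) is given: first quartile when negative (synergy) and third quartile when positive (antagonism).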

CN[C@@H]1[C@H](O)[C@H](NC)[C@H]2O[C@@]3(O)C(=O)C[C@@H](C)O[C@H]3O[C@@H]2[C@H]1O [Spectinomycin] + CN[C@@H]1[C@H](O[C@H]2[C@H](O[C@H]3[C@H](O)[C@@H](O)[C@H](N=C(N)N)[C@@H](O)[C@@H]3N=C(N)N)O[C@@H](C)[C@]2(O)C=O)O[C@@H](CO)[C@H](O)[C@H]1O [Streptomycin]
fitness
Settings	first compound 2 µg/mL	first compound 4 µg/mL	first compound 8 µg/mL	first compound 16 µg/mL
[1], partner 2 µg/mL	0.928	0.973	0.894	–
[1], partner 4 µg/mL	–	–	0.623	–
[1], partner 8 µg/mL	0.148	0.0533	0.0588	–
[2], partner 1 µg/mL	–	0.956	0.943	0.906
[2], partner 2 µg/mL	–	0.926	0.975	–
[3], partner 2 µg/mL	–	0.946	0.89	–
[3], partner 4 µg/mL	–	0.952	0.878	0.83
[3], partner 8 µg/mL	–	0.921	0.89	0.822

one replicate
Settings	fitness
[2], first compound 16 µg/mL, partner 8 µg/mL	0.0211
[2], first compound 32 µg/mL, partner 2 µg/mL	0.455
[2], first compound 32 µg/mL, partner 4 µg/mL	0.342
[2], first compound 32 µg/mL, partner 8 µg/mL	0.0569
[2], first compound 64 µg/mL, partner 2 µg/mL	0.0619
[2], first compound 64 µg/mL, partner 4 µg/mL	0.0473
[2], first compound 64 µg/mL, partner 8 µg/mL	0.0327
[3], first compound 4 µg/mL, partner 16 µg/mL	0.882
[3], first compound 8 µg/mL, partner 16 µg/mL	0.842
[3], first compound 16 µg/mL, partner 2 µg/mL	0.84
[3], first compound 16 µg/mL, partner 16 µg/mL	0.705

Settings	Bliss interaction score
[4]	0.0835
[5]	0.126
[6]	0.0625
[7]	0.0931

CN[C@@H]1[C@H](O)[C@H](NC)[C@H]2O[C@@]3(O)C(=O)C[C@@H](C)O[C@H]3O[C@@H]2[C@H]1O [Spectinomycin] + COc1cc(Cc2cnc(N)nc2N)cc(OC)c1OC [Trimethoprim]
fitness, one replicate
Settings	first compound 2 µg/mL	first compound 4 µg/mL	first compound 8 µg/mL	first compound 32 µg/mL	first compound 64 µg/mL
[1], partner 0.1 µg/mL	0.871	0.821	0.686	–	–
[1], partner 0.125 µg/mL	0.707	0.606	0.414	–	–
[1], partner 0.2 µg/mL	0.781	0.762	0.386	–	–
[1], partner 0.4 µg/mL	0.473	0.556	0.223	–	–
[1], partner 1 µg/mL	0.508	0.338	0.167	–	–
[1], partner 2 µg/mL	0.408	0.187	0.0702	–	–
[8], partner 0.125 µg/mL	–	0.808	0.822	0.629	0.026
[8], partner 0.25 µg/mL	–	–	–	0.573	0.0208
[8], partner 0.5 µg/mL	–	–	–	0.299	0.0374

fitness
Settings	first compound 4 µg/mL	first compound 8 µg/mL	first compound 16 µg/mL
[1], partner 0.25 µg/mL	–	0.482	–
[1], partner 0.5 µg/mL	0.496	0.308	–
[8], partner 0.125 µg/mL	–	–	0.654
[8], partner 0.25 µg/mL	0.598	0.593	0.649
[8], partner 1 µg/mL	0.0368	0.0298	0.0188

Settings	Bliss interaction score
[4]	-0.0925
[5]	0.0932
[6]	0.0863
[7]	-0.161

CN[C@@H]1[C@H](O[C@H]2[C@H](O[C@H]3[C@H](O)[C@@H](O)[C@H](N=C(N)N)[C@@H](O)[C@@H]3N=C(N)N)O[C@@H](C)[C@]2(O)C=O)O[C@@H](CO)[C@H](O)[C@H]1O [Streptomycin] + CC1=C\[C@@H](O)CC(=O)Cc2nc(co2)C(=O)N2CCC=C2C(=O)O[C@H](C(C)C)[C@H](C)/C=C/C(=O)NC\C=C\1 [Virginiamycin M1]
fitness
Settings	first compound 1 µg/mL	first compound 2 µg/mL	first compound 4 µg/mL	first compound 8 µg/mL
[1], partner 0.0625 µg/mL	–	0.962	–	0.0325
[1], partner 0.125 µg/mL	–	0.966	0.429	0.0265
[1], partner 0.25 µg/mL	–	≥ 1	0.453	0.0334
[2], partner 0.0625 µg/mL	1	0.879	–	–
[2], partner 0.125 µg/mL	0.996	0.891	–	–
[2], partner 0.25 µg/mL	0.978	0.916	–	–
[3], partner 0.5 µg/mL	–	0.977	0.998	0.931
[3], partner 1 µg/mL	–	0.955	0.99	0.884
[3], partner 2 µg/mL	–	0.917	0.944	0.921

fitness, one replicate
Settings	partner 0.15 µg/mL	partner 0.3 µg/mL	partner 0.5 µg/mL	partner 1 µg/mL	partner 2 µg/mL
[2], first compound 2 µg/mL	–	–	0.804	0.911	0.812
[2], first compound 4 µg/mL	–	–	0.865	0.86	0.82
[2], first compound 8 µg/mL	–	–	0.811	0.845	0.708
[3], first compound 2 µg/mL	0.928	0.912	–	–	–
[3], first compound 4 µg/mL	0.925	0.929	–	–	–
[3], first compound 8 µg/mL	0.917	0.941	–	–	–
[3], first compound 16 µg/mL	–	–	0.866	0.844	0.776

Settings	Bliss interaction score
[4]	-0.124
[5]	-0.161
[6]	0.0782
[7]	0.0533
